In brackets after ≈: the same amount, converted by molar mass. Like-named read-outs stand apart in the source and are kept apart here.

From patent publication US9040573B2, “Anti-fungal agent” (Nihon Nohyaku Co., Ltd., priority 2011, dated 2015) come the findings set out here.

One assay concerns Scytalidium dimidiatum. As to the kind of experiment: Antifungal Activity Test 1: MIC by broth microdilution method (Alamar Blue). Format: cell-based. The conditions noted are these: Neoscytalidium dimidiatum; for MIC: growth inhibited by 80% or more, read-out: MIC; for MIC90: concentration to be MIC in 9 strains out of the 10 strains (90%), read-out: MIC90. An excerpt:
Scytalidium dimidiatum strain of clinical isolate obtained by separation and identification from nail or stratum corneum of patients with superficial mycosis was used. The fungi pre-cultured on an SDA medium was suspended in 0.1% (w/v) Tween 80-containing sterile saline and the suspension was filtered through gauze to collect arthrospore. This was suspended in 0.1% (w/v) Tween 80-containing sterile saline, and added to a 20% Alamar Blue-containing medium to 2×10^4 cells/mL to give a fungal inoculum solution.
(§1) Each drug was used after dissolving in DMSO (dimethyl sulfoxide).
(§2) The minimum inhibitory concentration (MIC) was measured by a broth microdilution method. That is, RPMI1640 medium (Sigma-Aldrich) was buffered with 0.165 M morpholine propanesulfonic acid (MOPS, Wako Pure Chemical Industries, Ltd.) to pH 7.0, and a given amount of a solution of the drug in DMSO was added thereto to prepare 2-fold dilution series within the range of 0.00098-4 μg/mL. This was added to a 96-well microplate by 100 μL, a fungal inoculum solution (100 μL, final concentration of fungi to be added: 1.0×10^4 cells/mL) was added, and the mixture was cultured at 35° C. An Alamar Blue reagent was added in advance to the culture medium (final addition concentration: 10%) and, at the time point when the Alamar Blue reagent in the drug-free growth control group changed from blue to red, the culture was discontinued and the absorbance (differential optical density at 570 nm based on 590 nm served as reference) measured. The minimum concentration of the drug that inhibited the growth of the fungus in the growth control group by 80% or more was taken as MIC. The concentration to be MIC (MIC90) in 9 strains out of the 10 strains (90%) measured was determined.
Reference documents for measurement method: Takako Shinoda et al.: opinion proposed by Committee for Clinical Laboratory Standards of The Japanese Society for Medical Mycology (1995-1997), Method for antifungal susceptibility testing of filamentous fungus, Medical Mycology Journal, 40: 239-257, 1999. Clinical Laboratory Standards Institute/National Committee for Clinical Laboratory Standards. Reference method for broth dilution antifungal susceptibility testing of filamentous fungus. Approved Standard M38-A2. Wayne, Pa.: National Committee for Clinical Laboratory Standards, 2008. Test Results
On the technique in general: In broth dilution the organism is exposed to a series of concentrations in liquid medium.

The next assay has as its system Scytalidium hyalinum. As to the kind of experiment: Antifungal Activity Test 2: MIC by broth microdilution method (Alamar Blue). To be noted: Neoscytalidium hyalinum. Type of assay: cell-based. Here is the method:
as §2
Scytalidium hyalinum strain of clinical isolate available from CBS (Netherlands) was used. The fungus was pre-cultured in an SDA medium, 0.1% (w/v) Tween 80-containing sterile saline was added to give a suspension, which was filtered through gauze to collect arthrospore. This was suspended in 0.1% (w/v) Tween 80-containing sterile saline, and added to a 20% Alamar Blue-containing medium to 2×10^4 cells/mL to give a fungal inoculum solution.
as §1
The test method was the same as in the aforementioned antifungal activity test 1, and the minimum concentration of the drug that inhibited the growth of the fungus in the growth control group by 80% or more was taken as MIC. The MIC range of the 4 strains measured and the geometric mean (GM) of each drug were determined.

[1] abbreviates: clinical isolate CBS200.88, growth inhibited by 80% or more, read-out: MIC.
Setting [2] is: clinical isolate CBS545.95, growth inhibited by 80% or more, read-out: MIC.
Where [3] appears, read: clinical isolate CBS601.85, growth inhibited by 80% or more, read-out: MIC.
[4] abbreviates: clinical isolate CBS619.84, growth inhibited by 80% or more, read-out: MIC.
Setting [5] is: geometric mean of the 4 strains measured, read-out: GM (geometric mean of MIC).
Where [6] appears, read: range of the 4 strains measured, read-out: MIC range.

Consider `CN(C/C=C/C#CC(C)(C)C)Cc1cccc2ccccc12` [TBF, terbinafine], for which the MIC in the assay with Scytalidium dimidiatum (clinical isolate 530129) is 0.5 µg/mL (≈ 1.72 µM); with Scytalidium dimidiatum (clinical isolate 530142), 0.25 µg/mL (≈ 0.858 µM); with Scytalidium dimidiatum (clinical isolate 530251), 0.5 µg/mL (≈ 1.72 µM); with Scytalidium dimidiatum (clinical isolate 530621), 0.5 µg/mL (≈ 1.72 µM); with Scytalidium dimidiatum (clinical isolate 530633), 0.25 µg/mL (≈ 0.858 µM); with Scytalidium dimidiatum (clinical isolate 530914), 0.25 µg/mL (≈ 0.858 µM). Besides, the MIC with Scytalidium dimidiatum (clinical isolate 530946) was found to be 1 µg/mL (≈ 3.43 µM); in the assay on Scytalidium dimidiatum (clinical isolate 530999), 0.5 µg/mL (≈ 1.72 µM); with Scytalidium dimidiatum (clinical isolate 531581) it was 0.5 µg/mL (≈ 1.72 µM); in the assay on Scytalidium dimidiatum (clinical isolate 531869) it was 0.5 µg/mL (≈ 1.72 µM); in the assay on Scytalidium hyalinum (setting [1]), 0.25 µg/mL (≈ 0.858 µM); in the assay with Scytalidium hyalinum (setting [2]) it was 0.5 µg/mL (≈ 1.72 µM). For the same compound, the MIC is 1 µg/mL (≈ 3.43 µM) with Scytalidium hyalinum (setting [3]), 0.25 µg/mL (≈ 0.858 µM) in the assay with Scytalidium hyalinum (setting [4]), 0.42 µg/mL (≈ 1.44 µM) with Scytalidium hyalinum (setting [5]) and 0.25 to 1 µg/mL (≈ 0.858 to 3.43 µM) with Scytalidium hyalinum (setting [6]). For the same compound, the MIC90 in the assay on Scytalidium dimidiatum was found to be 0.5 µg/mL (≈ 1.72 µM).
Regarding `CCC(C)n1ncn(-c2ccc(N3CCN(c4ccc(OCC5COC(Cn6cncn6)(c6ccc(Cl)cc6Cl)O5)cc4)CC3)cc2)c1=O` (stereo not shown) [ITZ, itraconazole], the MIC in the assay on Scytalidium dimidiatum (clinical isolate 530129), in the assay with Scytalidium dimidiatum (clinical isolate 530142), in the assay with Scytalidium dimidiatum (clinical isolate 530251), with Scytalidium dimidiatum (clinical isolate 530621), with Scytalidium dimidiatum (clinical isolate 530633) and in the assay on Scytalidium dimidiatum (clinical isolate 530914) was above 4 µg/mL throughout. The minimum inhibitory concentration (MIC) in the assay on Scytalidium dimidiatum (clinical isolate 530946), in the assay with Scytalidium dimidiatum (clinical isolate 530999), in the assay with Scytalidium dimidiatum (clinical isolate 531581), in the assay on Scytalidium dimidiatum (clinical isolate 531869), in the assay with Scytalidium hyalinum (setting [1]) and with Scytalidium hyalinum (setting [2]) was above 4 µg/mL each time. Further, the MIC was 0.016 µg/mL (≈ 0.0227 µM) in the assay with Scytalidium hyalinum (setting [3]), above 4 µg/mL in the assay on Scytalidium hyalinum (setting [4]) and above 4 µg/mL with Scytalidium hyalinum (setting [5]). Moreover, the MIC90 with Scytalidium dimidiatum was above 4 µg/mL.
`CC(=O)N1CCN(c2ccc(OCC3COC(Cn4ccnc4)(c4ccc(Cl)cc4Cl)O3)cc2)CC1` (stereo not shown) [KCZ, ketoconazole]: the MIC in the assay on Scytalidium dimidiatum (clinical isolate 530129) is 4 µg/mL (≈ 7.53 µM); in the assay on Scytalidium dimidiatum (clinical isolate 530142), above 4 µg/mL; in the assay with Scytalidium dimidiatum (clinical isolate 530251), above 4 µg/mL; in the assay on Scytalidium dimidiatum (clinical isolate 530621), above 4 µg/mL; with Scytalidium dimidiatum (clinical isolate 530633), 4 µg/mL (≈ 7.53 µM); with Scytalidium dimidiatum (clinical isolate 530914) it was above 4 µg/mL. For the same compound, the MIC in the assay with Scytalidium dimidiatum (clinical isolate 530946) was above 4 µg/mL; with Scytalidium dimidiatum (clinical isolate 530999) it was above 4 µg/mL; in the assay on Scytalidium dimidiatum (clinical isolate 531581), above 4 µg/mL; in the assay on Scytalidium dimidiatum (clinical isolate 531869), 2 µg/mL (≈ 3.76 µM); with Scytalidium hyalinum (setting [1]), 2 µg/mL (≈ 3.76 µM); with Scytalidium hyalinum (setting [2]) it was 1 µg/mL (≈ 1.88 µM). For the same compound, the MIC was 0.031 µg/mL (≈ 0.0583 µM) with Scytalidium hyalinum (setting [3]), 2 µg/mL (≈ 3.76 µM) in the assay on Scytalidium hyalinum (setting [4]), 0.59 µg/mL (≈ 1.11 µM) in the assay on Scytalidium hyalinum (setting [5]) and 0.031 to 2 µg/mL (≈ 0.0583 to 3.76 µM) in the assay with Scytalidium hyalinum (setting [6]). Further, the MIC90 in the assay on Scytalidium dimidiatum is above 4 µg/mL.
With `N#C/C(=C1/SCC(c2ccccc2Cl)S1)n1ccnc1` (stereo not shown) [LCZ, [4-(2-chlorophenyl)-1,3-dithioran-2-ylidene](1H-imidazol-1-yl)acetonitrile], the MIC is 0.0039 µg/mL (≈ 0.0122 µM) in the assay on Scytalidium dimidiatum (clinical isolate 530129); 0.002 µg/mL (≈ 0.00625 µM) with Scytalidium dimidiatum (clinical isolate 530142); 0.0039 µg/mL (≈ 0.0122 µM) in the assay with Scytalidium dimidiatum (clinical isolate 530251); 0.0039 µg/mL (≈ 0.0122 µM) in the assay on Scytalidium dimidiatum (clinical isolate 530621); 0.0039 µg/mL (≈ 0.0122 µM) in the assay with Scytalidium dimidiatum (clinical isolate 530633); 0.0039 µg/mL (≈ 0.0122 µM) with Scytalidium dimidiatum (clinical isolate 530914). The MIC in the assay on Scytalidium dimidiatum (clinical isolate 530946) came to 0.0039 µg/mL (≈ 0.0122 µM); in the assay with Scytalidium dimidiatum (clinical isolate 530999) it was 0.002 µg/mL (≈ 0.00625 µM); with Scytalidium dimidiatum (clinical isolate 531581), 0.0039 µg/mL (≈ 0.0122 µM); with Scytalidium dimidiatum (clinical isolate 531869), 0.002 µg/mL (≈ 0.00625 µM); in the assay on Scytalidium hyalinum (setting [1]) it was 0.002 µg/mL (≈ 0.00625 µM); in the assay with Scytalidium hyalinum (setting [2]) it was 0.00098 µg/mL (≈ 0.00306 µM). For the same compound, the MIC with Scytalidium hyalinum (setting [3]) was 0.00024 µg/mL (≈ 0.00075 µM); in the assay on Scytalidium hyalinum (setting [4]), 0.002 µg/mL (≈ 0.00625 µM); with Scytalidium hyalinum (setting [5]), 0.00098 µg/mL (≈ 0.00306 µM); with Scytalidium hyalinum (setting [6]), 0.00024 to 0.002 µg/mL (≈ 0.00075 to 0.00625 µM). In addition, the MIC90 in the assay on Scytalidium dimidiatum stood at 0.0039 µg/mL (≈ 0.0122 µM).

Usually MIC stands for the lowest concentration that inhibits growth of the organism. What is called MIC90 is an inhibitory concentration at the 90% level, which refers to growth in some studies and to a panel of isolates in others.
